Source: patent US4797406A, “Amides and esters containing bridged piperidines and use as serotonin M antagonists” (Sandoz Ltd., priority 1983, dated 1989)

How the values were obtained:
[1] = molecular target: T1, M receptors for serotonin (Oryctolagus cuniculus, UniProt A0A5F9C9J3); conditions: isolated rabbit vagus nerve; known serotonin D receptor antagonists; cited from earlier work
T1 construct: isolated rabbit vagus nerve; from tissue; host or cells: isolated rabbit vagus nerve
T1 sequence (A0A5F9C9J3 1-494): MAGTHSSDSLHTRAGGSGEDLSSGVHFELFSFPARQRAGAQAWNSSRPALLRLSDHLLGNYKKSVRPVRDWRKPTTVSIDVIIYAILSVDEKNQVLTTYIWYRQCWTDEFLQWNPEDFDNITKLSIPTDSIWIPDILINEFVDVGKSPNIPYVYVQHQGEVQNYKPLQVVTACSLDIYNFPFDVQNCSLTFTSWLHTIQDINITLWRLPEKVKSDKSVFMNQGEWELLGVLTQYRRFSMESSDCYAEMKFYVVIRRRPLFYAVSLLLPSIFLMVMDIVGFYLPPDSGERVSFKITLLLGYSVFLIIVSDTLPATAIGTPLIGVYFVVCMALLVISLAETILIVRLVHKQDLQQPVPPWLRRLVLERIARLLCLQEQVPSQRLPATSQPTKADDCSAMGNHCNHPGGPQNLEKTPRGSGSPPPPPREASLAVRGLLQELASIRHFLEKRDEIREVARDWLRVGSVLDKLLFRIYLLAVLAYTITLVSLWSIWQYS

serotonin M receptor = conditions: human volunteers, forearm blister; serotonin D receptor antagonists; cited from earlier work
[2] = molecular target: T1, M receptors for serotonin; assay: isolated rabbit vagus nerve test (serotonin reduction of C fibre compound action potential); conditions: antagonism of serotonin on C fibre action potential, read-out: pA2 in the vagus nerve test (converted)
Description: For example, in one test the action of the compounds in inhibiting the action of serotonin in reducing the amplitude of the compound action potential from the isolated rabbit vagus nerve was observed according to the principles of Riccioppo Neto, European Journal of Pharmacology (1978) 49 351-356, under conditions permitting differentation between action potentials generated in myelinatd nerve fibres (A fibres) and those generated in small non-myelinated fibres (C fibres) as described by B. Oakley and R. Schater, Experimental Neurobiology, A Laboratory Manual, University of Michigan Press, 1978, p.85 to 96. Serotonin itself exerts its effect selectively on the C-fibres progressively with dosage. This action of serotonin is not blocked by the known serotonin antagonists, metitepine, methysergide, BOL - 148, which have been said to block D receptors for serotonin, but not M receptors (see Gaddam and Picarlli, Brit.J.Pharmacol. (1957), 12, 323-328). It therefore appears that serotonin reduces the amplitude of the action potential carried by the C fibres through an effect mediated by M receptors for serotonin which are located on these nerve fibres.
The test may be effected by establishing a dose response curve for serotonin (10^-7 -5×10^-6 M) after setting up the nerve. […]

migraine attack = conditions: slow i.v. injection of 10 mg; reported by J. B. Hughes 1977; cited from earlier work

Row | SMILES | block of the action of serotonin on the C fibre action potential [1] | inhibition of the algesic action of serotonin on the blister base (serotonin M receptor) | Kb [2] | further results
1 | CC[C@@H](CO)NC(=O)[C@@H]1C=C2c3cccc4c3c(cn4C)C[C@H]2N(C)C1 [methysergide] | not blocked |  |  | 
2 | CSc1ccc2c(c1)C(N1CCN(C)CC1)Cc1ccccc1S2 (centres unmarked) [metitepine] | not blocked |  |  | 
3 | CCN(CC)C(=O)[C@@H]1C=C2c3cccc4[nH]c(Br)c(c34)C[C@H]2N(C)C1 [BOL - 148] | not blocked | not inhibited |  | 
4 | CN1C[C@H]2CCC[C@@H](C1)[C@@H]2OC(=O)c1c[nH]c2ccccc12 [Example 2] |  |  | 6.31 nM | 
5 | CCN(CC)CCNC(=O)c1cc(Cl)c(N)cc1OC [metoclopramide, Metoclopramide] |  |  | 50.1 nM | effect on a migraine attack (migraine attack): immediate effect
6 | CCN(CC)C(=O)[C@@H]1C=C2c3cccc4[nH]cc(c34)C[C@H]2N(C)C1 [lysergic acid diethylamide] |  | not inhibited |  | 
